Data on nine compounds can be found in patent publication US6423689B1, “Peptidyl calcium channel blockers” (Warner-Lambert Company, priority 1997, dated 2002).

Like-named read-outs stand apart in the source and are kept apart here.

The target of series [1] is T1, N-type Ca2+ channels in IMR-32 cells (Homo sapiens, UniProt Q00975).
T1 construct: host or cells: IMR-32 cells, differentiated with dibutyryl cAMP and bromodeoxyuridine
Nature of the series: Inhibition of N-type calcium flux in IMR-32 cells (Indo-1 fluorescence, nitrendipine present). The class given is cell-based. To be noted: for IC50: IMR-32 cells, 5 μM nitrendipine, K+ depolarization; for inhibition at 1 µM / inhibition at 10 µM: IMR-32. In a few lines:
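Differentiated IMR-32 cells (7–13 days) were loaded with 5 μM Indo-1 AM, preincubated with compound for 10 min at 30° C, and depolarized with KCl/CaCl2 stimulation solution, with 5 μM nitrendipine blocking L-channels. Peak-minus-basal 400/490 nm emission ratio was plotted against drug concentration, and IC50 came from four-parameter logistic fits.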
(Calcium flux is commonly read through the fluorescence of an indicator in the cells.)

Series [2] has as its system DBA/2 mice. Nature of the series: animal or person. Type of series: in vivo. To be noted: for responders at 30 mg/kg: Mus musculus, iv, read-out: Number of Mice Protected from Tonic Convulsions. The procedure: Audiogenic Seizure Model in DBA/2 Mice
In Vivo Biological Protocol
A compound of the present invention was dissolved in water using 10% (weight/volume) Emulphor (GAF Cop., Wayne N.J. surfactant. Substances were administered by intravenous injection the retro-orbital venous sinus. […] All the male mice, 3-4 weeks old were obtained from Jackson Laboratories Bar Harbour, Me. Immediately before anticonvulsant testing, mice were placed upon a wire mesh, 4 inches square suspended from a steel rod. The square was slowly inverted through 180 degree and mice observed for 30 seconds. Any mouse falling from the wire mesh was scored as ataxia.
Mice were placed into an enclosed acrylic plastic chamber (21 cm in height, approximately 30 cm diameter) with a high-frequency speaker (4 cm diameter) in the center of the top lid. An audio signal generator (Protek model B-810) was used to produce a continuous sinusoidal tone that was swept linearly in frequency between 8 kHz and 16 kHz once each 10 msec. The average sound pressure level (SPL) during stimulation was approximately 100 dB at the floor of the chamber. Mice were placed within the chamber and allowed to acclimatize for 1 minute. DBA/2 mice in the vehicle-treated group responded to the sound stimulus (applied until tonic extension occurred, or for a maximum of 60 sec) with a characteristic seizure sequence consisting of wild running followed by clonic seizures, and later by tonic extension, and finally by respiratory arrest and death in 80% or more of the mice. In vehicle-treated mice, the entire sequence of seizures to respiratory arrest lasts approximately 15-20 seconds.
The incidence of all the seizure phases in the drug-treated and vehicle-treated mice was recorded, and the occurrence of tonic seizures were used for calculating anticonvulsant ED50 values by probit analysis. Mice were used only once for testing at each time and dose point.

The subject of series [3] is K+ channels in superior cervical ganglion (SCG) neurons. Nature of the series: Whole-cell voltage clamp, K+ current in SCG neurons. Type of series: cell-based, rat. To be noted: 10 μM. The method in brief: (§1)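 Acutely dissociated (trypsin) SCG neurons under whole-cell voltage clamp, external NaCl/KCl/HEPES buffer pH 7.4, K-gluconate/KCl pipette. From holding potential −65 to −55 mV, 35 msec steps every 10 sec to 0 mV (peak Na+ current) or +50 mV (sustained K+ current); compounds perfused locally to steady-state block, reported as percent inhibition of control.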

Series [4] has as its system Na+ channels in superior cervical ganglion (SCG) neurons. Briefly: Whole-cell voltage clamp, Na+ current in SCG neurons. To be noted: 10 μM. Type of series: cell-based, rat. The method in brief: as §1
Series [5] addresses T2, L-type Ca2+ channels in A10 cells (Rattus norvegicus, UniProt P22002).
T2 construct: which endogenously expresses L-type calcium channels; host or cells: A10 rat aortic smooth muscle cells
Nature of the series: Inhibition of L-type calcium flux in A10 cells (FLIPR). Type of series: cell-based. On the procedure:
Measurement of L-type Ca^2+ Channel Blocking Potencies of Compounds in A10 cells
Calcium flux through voltage-sensitive calcium channels was assessed by time-resolved monitoring of the fluorescence of pre-loaded calcium-sensitive dyes using FLIPR, a fluorescent image plate reader (Molecular Devices Co.). The A10 smooth muscle cell line derived from embryonic thoracic aorta of the DBIX rat (ATCC, CRL-1476) which endogenously expresses L-type calcium channels. The growth media for A10 cells was Ham's F12/DME high glucose (Irvine Scientific, 9052), supplemented with 20% fetal bovine serum (HyClone Labs, A-1115-L), and 1% each of L-glutamine and antibiotic-antimycotic (same source as above).
Cells were grown to confluency and replated on black-sided 96-well plates (Costar, 3603) for use in FLIPR. Two days after replating, growth media was removed and cells were loaded at 37° C. with 100 μL media containing 1 μM Oregon Green 488 Bapta-1 dye (Molecular Probes, O-6807) for 1 to 3 hours. The dye-containing media was then washed away with buffer (composition in mM: 1.25 CaCl2, 1.2 MgSO4, 11 glucose, 10 HEPES, 3.0 KCl, 137.0 NaCl, pH 7.4 with Tris base) in a Denley Cellwash (Labsystems, CW018B). The residual buffer volume was adjusted to 50 μL. A 5 minute drug-pre-incubation period at 35° C. was initiated when 50 μL of drug-containing buffer was pipetted into the cell plate with the 96-well pipettor integrated in the FLIPR apparatus. Fluorescent counts were monitored at 20 second intervals for 360 seconds, beginning 60 seconds prior to the delivery of drug-containing buffer. Following drug addition, 100 μL aliquots of a high K^+, depolarizing stimulus (composition in mM: 1.25 CaCl2, 1.2 MgSO4, 11 glucose, 10 HEPES, 140.0 KCl, pH 7.4 with Tris base) were added to each well and fluorescence was monitored at 1 second intervals for 120 seconds, beginning 10 seconds prior to the stimulus addition. CCD camera exposure time was 0.4 seconds, laser excitation was at 488 nm with a power of 0.2-0.5W, and a 510 to 560 nm bandpass interference filter preceded the camera.
Data was analyzed as a summation of fluorescent counts above basal during the stimulation period (an approximation of area under the curve), after normalizing the data with a spatial uniformity correction (for variations in laser illumination and cell density) and a negative control correction (zero calcium increase defined as the fluorescence reading in the presence of saturating pharmacologic block of the respective calcium channel). Drug effects were expressed as percent inhibition of fluorescence from an average of 8 K^+-stimulated wells which were pre-treated in the drug incubation period with buffer only.
In the A10 cells, the pharmacologic agent used to define zero calcium influx was nitrendipine (RBI, N-144), at a final concentration of 1.0×10^−6 M.

[6] abbreviates: 30 mg/Kg iv, 15 min post treatment.
Where [7] appears, read: 30 mg/Kg iv, 45 min post treatment.

T2 sequence (P22002 whole entry): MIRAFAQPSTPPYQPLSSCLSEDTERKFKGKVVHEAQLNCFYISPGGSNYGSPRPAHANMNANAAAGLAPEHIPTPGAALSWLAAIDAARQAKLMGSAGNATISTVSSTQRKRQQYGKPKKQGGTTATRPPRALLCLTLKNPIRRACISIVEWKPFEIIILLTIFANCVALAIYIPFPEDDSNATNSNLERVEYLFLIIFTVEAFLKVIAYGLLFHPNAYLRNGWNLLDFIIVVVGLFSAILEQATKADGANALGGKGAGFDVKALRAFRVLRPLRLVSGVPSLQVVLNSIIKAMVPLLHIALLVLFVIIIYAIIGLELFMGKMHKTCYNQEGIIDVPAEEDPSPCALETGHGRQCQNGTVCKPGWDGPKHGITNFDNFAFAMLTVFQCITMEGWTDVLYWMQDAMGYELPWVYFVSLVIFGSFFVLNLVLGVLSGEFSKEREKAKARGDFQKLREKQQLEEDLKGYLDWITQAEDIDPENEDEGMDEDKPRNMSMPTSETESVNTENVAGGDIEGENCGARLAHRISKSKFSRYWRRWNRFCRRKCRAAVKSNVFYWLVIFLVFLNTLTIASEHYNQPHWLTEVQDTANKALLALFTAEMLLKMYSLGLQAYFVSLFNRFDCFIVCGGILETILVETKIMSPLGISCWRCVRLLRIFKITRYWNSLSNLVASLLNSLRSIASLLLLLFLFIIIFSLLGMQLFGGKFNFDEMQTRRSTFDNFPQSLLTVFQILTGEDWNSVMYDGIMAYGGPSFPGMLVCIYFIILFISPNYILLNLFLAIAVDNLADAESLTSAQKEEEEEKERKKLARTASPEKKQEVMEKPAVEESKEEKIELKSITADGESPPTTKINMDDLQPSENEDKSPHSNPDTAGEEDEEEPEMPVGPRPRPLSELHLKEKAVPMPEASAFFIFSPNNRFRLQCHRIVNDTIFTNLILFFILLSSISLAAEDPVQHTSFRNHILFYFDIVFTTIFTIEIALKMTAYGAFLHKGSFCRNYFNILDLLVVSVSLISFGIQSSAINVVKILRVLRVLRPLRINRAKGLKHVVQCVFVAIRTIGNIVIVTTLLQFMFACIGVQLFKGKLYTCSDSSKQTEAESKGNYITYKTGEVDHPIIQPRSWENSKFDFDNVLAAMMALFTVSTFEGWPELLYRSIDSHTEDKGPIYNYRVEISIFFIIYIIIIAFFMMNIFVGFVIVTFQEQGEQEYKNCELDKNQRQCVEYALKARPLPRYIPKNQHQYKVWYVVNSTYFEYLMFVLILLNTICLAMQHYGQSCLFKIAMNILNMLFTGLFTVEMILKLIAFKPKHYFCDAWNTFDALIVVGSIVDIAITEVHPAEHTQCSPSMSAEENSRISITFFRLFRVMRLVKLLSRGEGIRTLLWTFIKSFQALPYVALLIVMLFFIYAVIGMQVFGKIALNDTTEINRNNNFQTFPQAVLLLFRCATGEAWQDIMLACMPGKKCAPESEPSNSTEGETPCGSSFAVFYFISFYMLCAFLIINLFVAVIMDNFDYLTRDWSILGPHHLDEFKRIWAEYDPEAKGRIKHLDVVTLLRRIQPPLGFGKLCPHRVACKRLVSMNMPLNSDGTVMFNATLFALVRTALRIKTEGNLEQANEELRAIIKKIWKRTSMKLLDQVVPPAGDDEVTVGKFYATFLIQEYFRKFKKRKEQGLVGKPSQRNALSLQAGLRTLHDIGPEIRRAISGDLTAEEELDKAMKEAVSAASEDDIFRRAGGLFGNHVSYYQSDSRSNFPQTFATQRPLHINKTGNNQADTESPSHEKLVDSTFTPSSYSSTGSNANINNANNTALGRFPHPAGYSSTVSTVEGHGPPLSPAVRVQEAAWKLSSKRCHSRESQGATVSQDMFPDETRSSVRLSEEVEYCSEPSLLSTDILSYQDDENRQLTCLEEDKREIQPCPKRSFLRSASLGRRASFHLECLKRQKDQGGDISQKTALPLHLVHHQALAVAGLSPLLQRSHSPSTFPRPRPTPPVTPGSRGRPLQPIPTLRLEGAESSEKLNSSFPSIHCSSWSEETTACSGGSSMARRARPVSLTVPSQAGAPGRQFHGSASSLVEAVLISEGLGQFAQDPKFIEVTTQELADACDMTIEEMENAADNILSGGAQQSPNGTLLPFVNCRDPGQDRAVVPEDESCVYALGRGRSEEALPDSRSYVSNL
T2 sequence (P54290 25-944 partner limits assumed): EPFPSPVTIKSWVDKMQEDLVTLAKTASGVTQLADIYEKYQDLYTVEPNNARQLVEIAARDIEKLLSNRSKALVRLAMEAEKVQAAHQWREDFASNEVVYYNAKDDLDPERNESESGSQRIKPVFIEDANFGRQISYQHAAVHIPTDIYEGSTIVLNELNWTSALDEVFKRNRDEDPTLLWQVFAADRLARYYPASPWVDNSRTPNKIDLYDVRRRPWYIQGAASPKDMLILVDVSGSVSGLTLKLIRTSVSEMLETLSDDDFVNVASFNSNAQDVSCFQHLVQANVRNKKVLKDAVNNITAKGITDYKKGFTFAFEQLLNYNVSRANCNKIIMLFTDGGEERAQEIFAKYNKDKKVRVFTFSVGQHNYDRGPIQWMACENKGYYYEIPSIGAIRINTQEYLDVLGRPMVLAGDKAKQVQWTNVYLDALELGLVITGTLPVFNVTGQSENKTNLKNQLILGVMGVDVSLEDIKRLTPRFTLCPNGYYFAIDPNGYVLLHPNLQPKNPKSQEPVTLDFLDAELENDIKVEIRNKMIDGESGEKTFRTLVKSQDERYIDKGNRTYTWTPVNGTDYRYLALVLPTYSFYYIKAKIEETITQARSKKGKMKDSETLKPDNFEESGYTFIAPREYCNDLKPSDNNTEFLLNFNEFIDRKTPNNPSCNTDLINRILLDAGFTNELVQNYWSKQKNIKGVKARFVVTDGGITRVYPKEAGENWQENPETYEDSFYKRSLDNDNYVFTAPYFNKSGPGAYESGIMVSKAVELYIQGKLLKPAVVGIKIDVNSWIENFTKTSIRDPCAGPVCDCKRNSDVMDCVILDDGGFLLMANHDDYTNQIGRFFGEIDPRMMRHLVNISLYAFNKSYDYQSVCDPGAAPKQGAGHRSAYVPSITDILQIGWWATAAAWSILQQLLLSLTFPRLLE
T2 sequence (P54290 945-1091 partner limits assumed): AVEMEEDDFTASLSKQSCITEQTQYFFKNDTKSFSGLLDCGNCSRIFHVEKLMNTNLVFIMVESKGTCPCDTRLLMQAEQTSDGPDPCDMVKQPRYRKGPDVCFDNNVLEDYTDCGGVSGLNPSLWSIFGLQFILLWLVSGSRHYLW
T2 sequence (P54287 whole entry partner): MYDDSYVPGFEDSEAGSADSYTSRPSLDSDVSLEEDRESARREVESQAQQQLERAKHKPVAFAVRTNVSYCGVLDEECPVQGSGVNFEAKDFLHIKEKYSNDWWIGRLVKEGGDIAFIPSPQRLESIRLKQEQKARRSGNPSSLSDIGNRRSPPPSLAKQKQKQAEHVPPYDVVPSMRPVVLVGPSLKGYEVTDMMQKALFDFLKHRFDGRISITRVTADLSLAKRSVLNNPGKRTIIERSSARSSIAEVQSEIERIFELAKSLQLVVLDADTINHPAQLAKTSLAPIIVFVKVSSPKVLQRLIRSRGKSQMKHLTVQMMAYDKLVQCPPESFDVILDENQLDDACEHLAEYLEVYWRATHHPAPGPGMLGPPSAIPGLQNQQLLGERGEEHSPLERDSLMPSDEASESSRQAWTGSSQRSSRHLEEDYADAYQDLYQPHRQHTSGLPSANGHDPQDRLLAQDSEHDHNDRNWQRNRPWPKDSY

Regarding `CC(C)C[C@H](NC(=S)Nc1ccc(C(C)(C)C)cc1)C(=O)N[C@@H](Cc1ccc(OCc2ccccc2)cc1)C(=O)OC(C)(C)C` (relative stereo) [Example 44, [S-(R*,R*)]-3-(4-Benzyloxy-phenyl)-2-{2-[3-(4-tert-butyl-phenyl)-thioureido]-4-methyl-pentanoylamino}-propionic acid, tert-butyl ester], in series [1], the “Inhibition of Calcium Flux in IMR-32 Cells % Inhibition at 1 μM” value is listed as 28% and the “Inhibition of Calcium Flux in IMR-32 Cells % Inhibition at 10 μM” value is recorded as 71%. In addition, in series [2] (setting [6]), the “Number of Mice Protected from Tonic Convulsions” value (“Number of Mice Protected” below) is on record as 0/5.
Regarding `CC(C)C[C@H](NC(=O)N1CCCCCC1)C(=O)N[C@@H](Cc1ccc(OCc2ccccc2)cc1)C(=O)NC(CO)CO` (relative stereo) [Example 257, [S-(R*,R*)]-Azepane-1-carboxylic acid {1-[2-(4-benzyloxy-phenyl)-1-(2-hydroxy-1-hydroxymethyl-ethylcarbamoyl)-ethylcarbamoyl]-3-methyl-butyl}-amide], in series [1], the “Inhibition of Calcium Flux in IMR-32 Cells % Inhibition at 1 μM” value stood at 42%; the “Inhibition of Calcium Flux in IMR-32 Cells % Inhibition at 10 μM” value is listed as 90%; the half-maximal inhibitory concentration (IC50) – broadly, the concentration needed to halve the response being measured – was 1400 nM. Further, the “Inhibition of K+ Current, % Inhibition at 10 μM” value in series [3] is recorded as 43%. In addition, in series [4], the “Inhibition of Na+ Current, % Inhibition at 10 μM” value amounted to 5%. For the same compound, in series [2] (setting [6]), the “Dead mice (remark beside the protection count)” value (from here on “Dead mice”) is “(1 dead)” and the “Number of Mice Protected” value is on record as 3/4. Besides, in series [2] (setting [7]), the “Dead mice” value was 2 (dead) and the “Number of Mice Protected” value is listed as 3/3.
As for `CC(C)C[C@H](NC(=O)N1CCCCCC1)C(=O)N[C@@H](Cc1ccc(OCc2ccccc2)cc1)C(=O)NC1CCN(Cc2ccccc2)C1` (stereo in doubt) [Example 183, Azepane-1-carboxylic acid {(S)-1-[(S)-2-(4-benzyloxy-phenyl)-1-[1-benzyl-(S)-pyrrolidin-3-ylcarbamoyl]-ethylcarbamoyl]-3-methyl-butyl}-amide], the IC50 in series [1] is 300 nM; in series [5] it was 220 nM. For the same compound, the responders at 30 mg/kg in series [2] (0.25 h) was 100%. The “Dead mice” value in series [2] (mouse, in vivo) is recorded as “dead”.
In the case of `CC(C)C[C@H](NS(=O)(=O)c1ccc(C(C)(C)C)cc1)C(=O)N[C@@H](Cc1ccc(OCc2ccccc2)cc1)C(=O)OC(C)(C)C` [Example 36, [S-(R*,R*)]-3-(4-Benzyloxy-phenyl)-2(S)-[2(S)-(4-tert-butyl-benzenesulfonylamino)-4-methyl-pentanoylamino]-propionic acid tert-butyl ester], the melting point (commonly the temperature of the solid-liquid transition) lay in the range of 142 to 143 °C. In addition, in series [1], the inhibition – broadly, how much of the control response was suppressed – at 1 µM amounted to 71%; the inhibition at 10 µM worked out at 86%; the IC50 is 170 nM. Besides, the half-inhibitory concentration (IC50) in series [5] was determined as 3000 nM. Further, in series [3], the “Inhibition of K+ Current, % Inhibition at 10 μM” value was 92%. Besides, the “Inhibition of Na+ Current, % Inhibition at 10 μM” value in series [4] stood at 91%.
In the case of `CC(C)C[C@H](NC(=O)N1CCCCCC1)C(=O)N[C@@H](Cc1ccc(CCC2(O)CCCCC2)cc1)C(=O)NC(C)(C)C` [Example 148, [S-(R*,R*)]-Azepane-1-carboxylic acid [1-(1-tert-butylcarbamoyl-2-{4-[2-(1-hydroxy-cyclohexyl)-ethyl]-phenyl}-ethylcarbamoyl)-3-methyl-butyl]-amide], the melting point was in the range of 101 to 102 °C. In series [1], the inhibition at 1 µM turned out to be 30% and the inhibition at 10 µM was found to be 68%. In addition, in series [5], the IC50 was determined as 970 nM.
Take `CC(C)C[C@H](NC(=O)N1CCCCCC1)C(=O)N[C@@H](Cc1ccc(OCc2ccccc2)cc1)C(=O)NCCN1CCCCC1` [Example 171, [S-(R*,R*)]-Azepane-1-carboxylic acid {1-[2-(4-benzyloxy-phenyl)-1-(2-piperidin-1-yl-ethylcarbamoyl)-ethylcarbamoyl]-3-methyl-butyl}-amide]: in series [1], the inhibition at 1 µM was 62% and the half-inhibitory concentration (IC50) came out at 460 nM. Besides, the IC50 in series [5] turned out to be 270 nM. Further, the responders at 30 mg/kg in series [2] (0.75 h) was 0%.
Turning to `CC(C)C[C@H](NC(=O)N1CCCCCC1)C(=O)N[C@@H](Cc1ccc(OCc2ccccc2)cc1)C(=O)N1CCSCC1` [Example 221, [S-(R*,R*)]-Azepane-1-carboxylic acid {1-[1-(4-benzyloxy-benzyl)-2-thiomorpholin-4-yl-2-oxo-ethylcarbamoyl]-3-methyl-butyl}-amide], the inhibition at 1 µM in series [1] is 65%. Besides, the inhibition at 10 µM in series [1] was 93%. Further, the concentration for half-maximal inhibition (IC50) in series [5] turned out to be 600 nM. Besides, the results for the responders at 30 mg/kg in series [2] (0.25 h) and in series [2] (0.75 h) were 20% and 0%, respectively.
Consider `CC(C)C[C@H](NC(=O)N1CCCCCC1)C(=O)N[C@@H](Cc1ccc(OCc2ccccc2)cc1)C(=O)NCCc1ccccn1` [Example 231], for which, in series [1], the inhibition at 1 µM stood at 55%, the inhibition at 10 µM is 95% and the half-maximal inhibitory concentration (IC50) was 1110 nM. Besides, the 50% inhibitory concentration (IC50) in series [5] was determined as 670 nM. The responders at 30 mg/kg in series [2] (0.25 h) is 0%.
As for `CC(C)CC(NC(=O)N1CCCCCC1)C(=O)NC(Cc1ccc(OCc2ccccc2)cc1)C(=O)NC(CO)C(C)C` (centres unmarked) [Example 253, Azepane-1-carboxylic acid {1-[2-(4-benzyloxy-phenyl)-1-(1-hydroxymethyl-2-methyl-propylcarbamoyl)-ethylcarbamoyl]-3-methyl-butyl}-amide], in series [1], the inhibition at 1 µM is 60%, the inhibition at 10 µM stood at 93% and the IC50 came out at 1100 nM. Also, in series [3], the “Inhibition of K+ Current, % Inhibition at 10 μM” value came out at 62%. Also, the “Inhibition of Na+ Current, % Inhibition at 10 μM” value in series [4] is given as 5%. Further, the responders at 30 mg/kg in series [2] (0.25 h) amounted to 0%.
